Measurements reported in EP0394868A1, “New antibiotics NK372135, process for the production thereof and use thereof” (Nippon Kayaku Kabushiki Kaisha, priority 1989, dated 1990).
≈ marks a conversion by molar mass, not a printed value.

Assays:
Assay type in all cases: cell-based
[1] = system: Aspergillus oryzae; test: Antimicrobial spectrum, paper disc agar diffusion; conditions: 8 mm paper disc, 100 µg/ml solution, 25°C for a day and night, read-out: Diameter of inhibition zone (mm)
Procedure: (§1) The antimicrobial spectra of the compounds of the present invention were examined.
(§2) Table 1 gives the antimicrobial spectra of NK372135A, C and D. A paper disc of 8 mm in diameter was immersed in a solution containing 100 µg/ml of NK372135A, C or D and then placed on an agar medium in which a test strain had been grown. Regarding the four strains listed in the upper part of Table 1 and Candida albicans, each culture was conducted at 37°C for a day and night, while other strains were cultured at 25°C for a day and night. Then the diameter of each inhibition zone thus formed was measured. […] Since no existing antifungal agent exerts a satisfactory effect on fungi, the compounds of the present invention are highly expected as effective antifungal agents.

[2] = system: Bacillus subtilis; test: Antimicrobial spectrum, paper disc agar diffusion; conditions: 8 mm paper disc, 100 µg/ml solution, 37°C for a day and night, read-out: Diameter of inhibition zone (mm)
Procedure: as §1, §2

[3] = system: Botrytis fabae; test: Antimicrobial spectrum, paper disc agar diffusion; conditions: 8 mm paper disc, 100 µg/ml solution, 25°C for a day and night, read-out: Diameter of inhibition zone (mm)
Procedure: as §1, §2

[4] = system: Candida albicans; test: Antimicrobial spectrum, paper disc agar diffusion; conditions: 8 mm paper disc, 100 µg/ml solution, 37°C for a day and night, read-out: Diameter of inhibition zone (mm)
Procedure: as §1, §2

[5] = system: Escherichia coli; test: Antimicrobial spectrum, paper disc agar diffusion; conditions: 8 mm paper disc, 100 µg/ml solution, 37°C for a day and night, read-out: Diameter of inhibition zone (mm)
Procedure: as §1, §2

[6] = system: Fusarium roseum; test: Antimicrobial spectrum, paper disc agar diffusion; conditions: Fusarium sambucinum, read-out: Diameter of inhibition zone (mm)
Procedure: as §1, §2

[7] = system: Mucor japonicus; test: Antimicrobial spectrum, paper disc agar diffusion; conditions: 8 mm paper disc, 100 µg/ml solution, 25°C for a day and night, read-out: Diameter of inhibition zone (mm)
Procedure: as §1, §2

[8] = system: Mycosphaerella melonis; test: Antimicrobial spectrum, paper disc agar diffusion; conditions: 8 mm paper disc, 100 µg/ml solution, 25°C for a day and night, read-out: Diameter of inhibition zone (mm)
Procedure: as §1, §2

[9] = system: Saccharomyces cerevisiae; test: Antimicrobial spectrum, paper disc agar diffusion; conditions: 8 mm paper disc, 100 µg/ml solution, 25°C for a day and night, read-out: Diameter of inhibition zone (mm)
Procedure: as §1, §2

[10] = system: Staphylococcus aureus; test: Antimicrobial spectrum, paper disc agar diffusion; conditions: 8 mm paper disc, 100 µg/ml solution, 37°C for a day and night, read-out: Diameter of inhibition zone (mm)
Procedure: as §1, §2

[11] = system: Trichophyton mentagrophytes; test: Antimicrobial spectrum, paper disc agar diffusion; conditions: 8 mm paper disc, 100 µg/ml solution, 25°C for a day and night, read-out: Diameter of inhibition zone (mm)
Procedure: as §1, §2

[12] = molecular target: T1, 5-lipoxygenase (Cavia porcellus, UniProt A0A286X958); test: 5-lipoxygenase inhibitory activity in ionophore-stimulated peritoneal cells (5-HETE by HPLC); conditions: Guinea pig peritoneal cells, ionophore A 23187 + arachidonic acid
T1 construct: the peritoneal cells of the animals were collected; endogenous in cells; host or cells: casein-elicited peritoneal cells of Hartley guinea pigs
T1 sequence (A0A286X958 1-674): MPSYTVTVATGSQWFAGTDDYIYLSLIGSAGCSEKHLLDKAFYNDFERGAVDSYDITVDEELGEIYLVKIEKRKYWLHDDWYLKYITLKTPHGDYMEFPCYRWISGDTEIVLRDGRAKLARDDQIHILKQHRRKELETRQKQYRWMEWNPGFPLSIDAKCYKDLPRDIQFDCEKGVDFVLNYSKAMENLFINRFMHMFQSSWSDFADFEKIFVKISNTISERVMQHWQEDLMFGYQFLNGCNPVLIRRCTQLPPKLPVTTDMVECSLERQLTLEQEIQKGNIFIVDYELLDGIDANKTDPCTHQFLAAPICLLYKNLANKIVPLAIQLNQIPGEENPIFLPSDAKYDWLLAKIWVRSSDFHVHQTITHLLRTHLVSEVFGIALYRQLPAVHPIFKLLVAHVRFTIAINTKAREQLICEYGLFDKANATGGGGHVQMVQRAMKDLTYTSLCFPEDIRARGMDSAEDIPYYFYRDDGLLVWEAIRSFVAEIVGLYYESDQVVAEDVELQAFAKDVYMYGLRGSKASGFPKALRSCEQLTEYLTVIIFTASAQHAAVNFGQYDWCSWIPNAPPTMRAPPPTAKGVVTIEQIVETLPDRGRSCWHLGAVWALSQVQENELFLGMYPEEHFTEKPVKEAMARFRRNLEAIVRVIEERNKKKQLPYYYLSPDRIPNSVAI
Procedure: The 5-lipoxygenase inhibitory activities of the compounds of the present invention were examined.
The 5-lipoxygenase inhibitory activity was evaluated from the inhibitory activity on ionophore stimulation on Guinea pig peritoneal cells in the following manner.
A 2% casein solution was intraperitoneally administered to Hartley Guinea pigs weighing 250 to 350 g. 18 hours after the administration, the peritoneal cells of the animals were collected. The contaminating erythrocytes were hemolyzed and centrifuged. To the cell fraction thus obtained was added a 50 mM phosphate buffer solution (pH 7.0) containing […] of indomethacin and the concentration of the peritoneal cells was adjusted to 1 x 10⁷ cell/-ml. To 1.0 ml of the cell suspension thus obtained, a test compound of various concentrations was added so as to give a final concentration of 100 µM. Then the mixture was incubated at 37°C for five minutes. Next, 1.0 µg of lonophore A 23187 and 10 µg of arachidonic acid were added thereto and the reaction was initiated. After 20 minutes, the reaction was ceased by adding 4 ml of ethanol. The reaction supernatant was analyzed by HPLC in accordance with the method of Amano et al. [Vitamin, 59, 211 - 219 (1985)] so as to detect 5-hydroxyeicosatetraenoic acid (5-HETE) which was a metabolite derived from arachidonic acid.

[13] = system: G361; test: Cytotoxicity, growth inhibition by methylene blue method; conditions: Homo sapiens, G-361, 96 h, RPMI 1640, 10% fetal calf serum, two to four days with compound, read-out: Cytotoxicity IC₅₀
Procedure: (§3) The cytotoxicities of NK372135A, B and C and methoxy-xanthocillin monomethyl ether (XTM) which is an analog thereof were examined. 2,000 cells of each of G361, SW1116, PC-3 and Li-7 cell strains were inoculated into a 96-well plate and incubated at 37°C under 5% CO₂ for 24 hours. An RPMI 1640 medium containing 10% of fetal calf serum was employed as a medium. After incubating for 24 hours, a test compound of a given concentration was added thereto and the incubation was further conducted for two to four days. Subsequently, the cells were counted by the methylene blue method so as to evaluate the extent of the growth inhibition.

[14] = system: Li-7; test: as above; conditions: RPMI 1640, 10% fetal calf serum, two to four days with compound; for IC50: 96 h, read-out: Cytotoxicity IC₅₀
Procedure: as §3

[15] = system: PC-3; test: as above; conditions: Homo sapiens, 96 h, RPMI 1640, 10% fetal calf serum, two to four days with compound, read-out: Cytotoxicity IC₅₀
Procedure: as §3

[16] = system: SW1116; test: as above; conditions: Homo sapiens, SW 1116, 96 h, RPMI 1640, 10% fetal calf serum, two to four days with compound, read-out: Cytotoxicity IC₅₀
Procedure: as §3

[17] = system: Candida albicans; test: Anti-Candida activity, growth in bouillon medium (absorbance at 595 nm); conditions: Candida albicans 2 x 10³ cell/well, 30°C for 16 hours
Procedure: The anti-Candida activity of NK372135B was compared with that of methoxy-xanthocillin X dimethyl ether which is shown in The Journal of Antibiotics Vol 34 (1981) No. 12, P1556 ∼ 1561.
Candida albicans was inoculated into a 96-well plate at a density of 2 x 10³ cell/well with the use of 0.2 cc of a bouillon medium. Then a test compound of various concentrations was added thereto and the microorganism was incubated at 30°C for 16 hours. Then the absorbance of each well at 595 nm was measured and IC₅₀ was calculated from the dose response curve. […] Thus it was found out that the saturation of the double bond in methoxy-xanthocillin X dimethyl ether enhanced the anti-Candida activity.

[18] = system: Mycobacterium smegmatis; test: Antimicrobial spectrum, paper disc agar diffusion; conditions: Mycolicibacterium smegmatis, 8 mm paper disc, 100 µg/ml solution, 37°C for a day and night, read-out: Diameter of inhibition zone (mm)
Procedure: as §1, §2

| Compound | zone of inhibition at 100 µg/mL [1] [mm] | zone of inhibition at 100 µg/mL [2] [mm] | zone of inhibition at 100 µg/mL [3] [mm] | zone of inhibition at 100 µg/mL [4] [mm] | zone of inhibition at 100 µg/mL [5] [mm] | zone of inhibition at 100 µg/mL [6] [mm] | zone of inhibition at 100 µg/mL [7] [mm] | zone of inhibition at 100 µg/mL [8] [mm] | zone of inhibition at 100 µg/mL [9] [mm] | zone of inhibition at 100 µg/mL [10] [mm] | zone of inhibition at 100 µg/mL [11] [mm] | Inhibition ratio (%) ([12]; 10⁻⁴ mol/ℓ) | Inhibition ratio (%) ([12]; 10⁻⁵ mol/ℓ) | Inhibition ratio (%) ([12]; 10⁻⁶ mol/ℓ) | IC50 [13] [µg/mL] | IC50 [14] [µg/mL] | IC50 [15] [µg/mL] | IC50 [16] [µg/mL] | other results |
| --- | --- | --- | --- | --- | --- | --- | --- | --- | --- | --- | --- | --- | --- | --- | --- | --- | --- | --- | --- |
| [C-]#[N+]C(=Cc1ccc(OC)c(O)c1)C(Cc1ccc(OC)cc1)[N+]#[C-] (centres unmarked) [NK372135C] | 21 | 28 | 25 | 25 | 29 | 12 | 17 | 19 | 25 | 26 | 30 | 100 | 25.5 | 12.9 | 2.52 (≈ 7.54 µM) | 1.7 (≈ 5.08 µM) | 1.23 (≈ 3.68 µM) | 5.89 (≈ 17.6 µM) | – |
| [C-]#[N+]C(=Cc1ccc(OC)c(OC)c1)C(Cc1ccc(OC)cc1)[N+]#[C-] (centres unmarked) [NK372135B] | – | – | – | – | – | – | – | – | – | – | – | 33.3 | 5.0 | 0 | 2.4 (≈ 6.89 µM) | 1.8 (≈ 5.17 µM) | 0.76 (≈ 2.18 µM) | 2.55 (≈ 7.32 µM) | IC50 ([17]; read-out: IC₅₀): 1.5 µg/mL (≈ 4.31 µM) |
| [C-]#[N+]C(=C\c1ccc(OC)cc1)/C(=C/c1ccc(OC)c(OC)c1)[N+]#[C-] [methoxy-xanthocillin X dimethyl ether, reference compound] | – | – | – | – | – | – | – | – | – | – | – | – | – | – | – | – | – | – | IC₅₀ [17]: 9.0 µg/mL |
| [C-]#[N+]C(=Cc1ccc(OC)cc1)C(Cc1ccc(OC)cc1)[N+]#[C-] (centres unmarked) [NK372135A] | 20 | 21.5 | 25 | 30 | 20 | 9 | 15 | 18 | 25 | 20.5 | 30 | 37.1 | 5.0 | 0 | 2.13 (≈ 6.69 µM) | 1.45 (≈ 4.55 µM) | 1.05 (≈ 3.3 µM) | 1.65 (≈ 5.18 µM) | zone of inhibition at 100 µg/mL [18]: 21 mm |
| methoxy-xanthocillin monomethyl ether [XTM, reference compound] | – | – | – | – | – | – | – | – | – | – | – | – | – | – | – | – | – | – | Cytotoxicity IC₅₀ [14]: 0.57 µg/mL |
